Where a SMILES comes first, the peptide text is derived from it. Bridges are numbered along the chain shown (N, C = ends). [ ]: non-standard residue; d: D form. The star is where a group is joined. X1 = CC[C@H](C)CCCCC(=O)*; Dab = NCC[C@H](N)C(=O)O
System: mucin from the porcine stomach
Experiment: PMB binding to mucin by ultracentrifugation in CAMHB with 1% mucin
Type: in vitro ADME
Parameters: Unbound conc.: unit not given here
Protocol: Mucin from the porcine stomach was obtained from Sigma-Aldrich (Merck KGaA, Saint-Quentin Fallavier, France) and solubilized in NaCl 0.9% to obtain a solution at 20% (pH adjusted to 7). The solution was autoclaved at 110°C for 15 minutes.
PMB solutions at concentrations ranging from 0.5 to 10,000 mg/L in CAMHB with 1% mucin were incubated for 1 h at 35°C, then ultracentrifuged at ~290 000 g for 5 h at room temperature (Beckman Optima LE-80K, rotor: Beckman Coulter 70.1 Ti), according to a method previously described ([35]). Unbound PMB concentrations in the supernates were determined by LC-MS/MS (method adapted from a previous publication ([36]) and detailed in Supplemental material) and used to determine the unbound fraction (fu) of PMB. Potential PMB sedimentation ([37]) during experimentation was determined from PMB solutions prepared in mucin-free CAMHB and subjected to the same ultracentrifugation conditions as previously described, and then used to correct for unbound PMB concentrations.
The same procedure was performed with a nonautoclaved mucin solution. Experiments were done in triplicate.
The relationship between fu and PMB total concentrations was modeled according to a sigmoidal Emax function (equation 1):
(1) fu=E0+ Imax × C^ε/IC50ε+ C^ε,
where E0 represents the minimum fu, Imax the maximum increase in fu, IC50 (mg/L) corresponds to PMB total concentration needed to reach 50% of Imax, C (mg/L) to the PMB total concentration, and ε to the Hill coefficient.
Parameter estimation was performed using nonlinear regression with iteratively reweighted least squares (R, version 4.1.3 – Package: robustbase, version 0.99–0). Two sets of parameters were estimated, one for the data generated with autoclaved mucin, another for the data generated without autoclave. The two sets of parameters were compared using ANOVA testing.

[1] = equation 1 fit, all data pooled, value (variance) in Table 1, CAMHB + 1% mucin, ultracentrifugation, LC-MS/MS, triplicate
[2] = equation 1 fit, autoclaved mucin data
[3] = equation 1 fit, non-autoclaved mucin data
[4] = simulated with equation 1, autoclaved mucin parameters, total conc. 0.5, CAMHB + 1% mucin
[5] = simulated with equation 1, autoclaved mucin parameters, total conc. 1, CAMHB + 1% mucin
[6] = simulated with equation 1, autoclaved mucin parameters, total conc. 2, CAMHB + 1% mucin
[7] = simulated with equation 1, autoclaved mucin parameters, total conc. 4, CAMHB + 1% mucin
[8] = simulated with equation 1, autoclaved mucin parameters, total conc. 8, CAMHB + 1% mucin
[9] = simulated with equation 1, autoclaved mucin parameters, total conc. 10, CAMHB + 1% mucin
[10] = simulated with equation 1, autoclaved mucin parameters, total conc. 50, CAMHB + 1% mucin
[11] = simulated with equation 1, autoclaved mucin parameters, total conc. 100, CAMHB + 1% mucin
[12] = simulated with equation 1, autoclaved mucin parameters, total conc. 500, CAMHB + 1% mucin
[13] = simulated with equation 1, autoclaved mucin parameters, total conc. 1000, CAMHB + 1% mucin
[14] = simulated with equation 1, autoclaved mucin parameters, total conc. 5000, CAMHB + 1% mucin
[15] = simulated with equation 1, autoclaved mucin parameters, total conc. 10000, CAMHB + 1% mucin
[16] = simulated with equation 1, non-autoclaved mucin parameters, total conc. 0.5, CAMHB + 1% mucin
[17] = simulated with equation 1, non-autoclaved mucin parameters, total conc. 1, CAMHB + 1% mucin
[18] = simulated with equation 1, non-autoclaved mucin parameters, total conc. 2, CAMHB + 1% mucin
[19] = simulated with equation 1, non-autoclaved mucin parameters, total conc. 4, CAMHB + 1% mucin
[20] = simulated with equation 1, non-autoclaved mucin parameters, total conc. 8, CAMHB + 1% mucin
[21] = simulated with equation 1, non-autoclaved mucin parameters, total conc. 10, CAMHB + 1% mucin
[22] = simulated with equation 1, non-autoclaved mucin parameters, total conc. 50, CAMHB + 1% mucin
[23] = simulated with equation 1, non-autoclaved mucin parameters, total conc. 100, CAMHB + 1% mucin
[24] = simulated with equation 1, non-autoclaved mucin parameters, total conc. 500, CAMHB + 1% mucin
[25] = simulated with equation 1, non-autoclaved mucin parameters, total conc. 1000, CAMHB + 1% mucin
[26] = simulated with equation 1, non-autoclaved mucin parameters, total conc. 5000, CAMHB + 1% mucin
[27] = simulated with equation 1, non-autoclaved mucin parameters, total conc. 10000, CAMHB + 1% mucin
[28] = simulated with equation 1, pooled data parameters, total conc. 0.5, CAMHB + 1% mucin
[29] = simulated with equation 1, pooled data parameters, total conc. 1, CAMHB + 1% mucin
[30] = simulated with equation 1, pooled data parameters, total conc. 2, CAMHB + 1% mucin
[31] = simulated with equation 1, pooled data parameters, total conc. 4, CAMHB + 1% mucin
[32] = simulated with equation 1, pooled data parameters, total conc. 8, CAMHB + 1% mucin
[33] = simulated with equation 1, pooled data parameters, total conc. 10, CAMHB + 1% mucin
[34] = simulated with equation 1, pooled data parameters, total conc. 50, CAMHB + 1% mucin
[35] = simulated with equation 1, pooled data parameters, total conc. 100, CAMHB + 1% mucin
[36] = simulated with equation 1, pooled data parameters, total conc. 500, CAMHB + 1% mucin
[37] = simulated with equation 1, pooled data parameters, total conc. 1000, CAMHB + 1% mucin
[38] = simulated with equation 1, pooled data parameters, total conc. 5000, CAMHB + 1% mucin
[39] = simulated with equation 1, pooled data parameters, total conc. 10000, CAMHB + 1% mucin

With `CC[C@H](C)CCCCC(=O)N[C@@H](CCN)C(=O)N[C@H](C(=O)N[C@@H](CCN)C(=O)N[C@H]1CCNC(=O)[C@H]([C@@H](C)O)NC(=O)[C@H](CCN)NC(=O)[C@H](CCN)NC(=O)[C@H](CC(C)C)NC(=O)[C@@H](Cc2ccccc2)NC(=O)[C@H](CCN)NC1=O)[C@@H](C)O` [PMB, polymyxin B] (X1-[Dab]T[Dab][Dab][Dab][dF]L[Dab][Dab]T; lactam 4-C) the “PMB bound to mucin” value (PMB concentrations encountered in clinical practice, up to 10 mg/L, 1% mucin) was “approximately 95%”, the “PMB unbound fraction (fu), maximum” value (PMB total concentration of 200 mg/L (b7) or higher than 200 mg/L, CAMHB + 1% mucin, ultracentrifugation, LC-MS/MS) was 60% and the “PMB unbound fraction (fu)” value (PMB total concentrations up to 20 mg/L, CAMHB + 1% mucin, 1 h 35°C, ultracentrifugation ~290 000 g 5 h, LC-MS/MS, triplicate) was 6%. For the same compound, the “IC50, PMB total concentration needed to reach 50% of the maximum fu” value [1] was 114.37 (196) mg/L, the “Imax, maximum PMB fu increase” value [1] was 0.56 (0.0009) and the “ε, Hill coefficient of fu vs total concentration” value [1] was 1.97 (0.252). The “IC50 of fu model” value [2] was 104.01 µg/mL, the “Imax, maximum fu increase” value [2] was 0.56 and the “E0, minimum fu” value (equation 1 fit, autoclaved mucin data, CAMHB + 1% mucin, ultracentrifugation) was 0.067. For the same compound, the “IC50 of fu model” value [3] was 126.95 µg/mL, the “Imax, maximum fu increase” value [3] was 0.57 and the “E0, minimum fu” value (equation 1 fit, non-autoclaved mucin data, CAMHB + 1% mucin, ultracentrifugation) was 0.056. For the same compound, the “E0, minimum PMB fu value” (sigmoidal Emax fit of fu vs PMB total concentration (equation 1), all data pooled, value (variance) in Table 1, CAMHB + 1% mucin, 1 h 35°C, ultracentrifugation ~290 000 g 5 h room temperature, LC-MS/MS, triplicate) was 0.061 (0.0004), the Unbound conc. [4] was 0.03 and the “fu (95% CI)” value [4] was 6.7 (0.1 - 13.2) %. The Unbound conc. [5] was 0.07, the “fu (95% CI)” value [5] was 6.7 (0.1 - 13.2) % and the Unbound conc. [6] was 0.13. The “fu (95% CI)” value [6] was 6.7 (0.1 - 13.2) %, the Unbound conc. [7] was 0.27 and the “fu (95% CI)” value [7] was 6.7 (0.3 - 13.2) %. The Unbound conc. [8] was 0.55, the “fu (95% CI)” value [8] was 6.9 (0.7 - 13.0) % and the Unbound conc. [9] was 0.70. The “fu (95% CI)” value [9] was 7.0 (1.0 - 13.0) %, the Unbound conc. [10] was 7.96 and the “fu (95% CI)” value [10] was 15.9 (7.7 – 24.2) %. For the same compound, the Unbound conc. [11] was 33.4, the “fu (95% CI)” value [11] was 33.4 (24.9 – 41.9) % and the Unbound conc. [12] was 304. The “fu (95% CI)” value [12] was 60.8 (55.0 - 66.6) %, the Unbound conc. [13] was 621 and the “fu (95% CI)” value [13] was 62.1 (57.2 – 67.1) %. For the same compound, the Unbound conc. [14] was 3120, the “fu (95% CI)” value [14] was 62.5 (57.1 – 67.9) % and the Unbound conc. [15] was 6250. The “fu (95% CI)” value [15] was 62.5 (57.1 – 68.0) %, the Unbound conc. [16] was 0.03 and the “fu (95% CI)” value [16] was 5.6 (2.1 - 9.1) %. The Unbound conc. [17] was 0.06, the “fu (95% CI)” value [17] was 5.6 (2.1 - 9.1) % and the Unbound conc. [18] was 0.11. The “fu (95% CI)” value [18] was 5.6 (2.2 - 9.1) %, the Unbound conc. [19] was 0.23 and the “fu (95% CI)” value [19] was 5.7 (2.3 - 9.1) %. The Unbound conc. [20] was 0.48, the “fu (95% CI)” value [20] was 5.9 (2.7 - 9.1) % and the Unbound conc. [21] was 0.61. The “fu (95% CI)” value [21] was 6.1 (3.0 - 9.2) %, the Unbound conc. [22] was 7.08 and the “fu (95% CI)” value [22] was 14.2 (10.5 – 17.8) %. The Unbound conc. [23] was 27.9, the “fu (95% CI)” value [23] was 27.9 (23.8 – 32.1) % and the Unbound conc. [24] was 293. For the same compound, the “fu (95% CI)” value [24] was 58.6 (54.6 - 62.6) %, the Unbound conc. [25] was 615 and the “fu (95% CI)” value [25] was 61.5 (58.4 – 64.7) %. For the same compound, the Unbound conc. [26] was 3130, the “fu (95% CI)” value [26] was 62.7 (58.6 – 66.7) % and the Unbound conc. [27] was 6270. The “fu (95% CI)” value [27] was 62.7 (58.6 - 66.9) %, the Unbound conc. [28] was 0.03 and the “fu (95% CI)” value [28] was 6.1 (2.1 - 10.0) %. The Unbound conc. [29] was 0.06, the “fu (95% CI)” value [29] was 6.1 (2.1 - 10.0) % and the Unbound conc. [30] was 0.12. The “fu (95% CI)” value [30] was 6.1 (2.2 - 10.0) %, the Unbound conc. [31] was 0.25 and the “fu (95% CI)” value [31] was 6.1 (2.3 - 10.0) %. For the same compound, the Unbound conc. [32] was 0.51, the “fu (95% CI)” value [32] was 6.4 (2.7 - 10.0) % and the Unbound conc. [33] was 0.65. For the same compound, the “fu (95% CI)” value [33] was 6.5 (3.0 - 10.1) %, the Unbound conc. [34] was 7.62 and the “fu (95% CI)” value [34] was 15.2 (10.7 - 19.7) %. The Unbound conc. [35] was 30.4, the “fu (95% CI)” value [35] was 30.4 (25.6 - 35.2) % and the Unbound conc. [36] was 296. The “fu (95% CI)” value [36] was 59.2 (55.1 - 63.2) %, the Unbound conc. [37] was 613 and the “fu (95% CI)” value [37] was 61.3 (58.2 - 64.4) %. The Unbound conc. [38] was 3100, the “fu (95% CI)” value [38] was 62.1 (58.4 - 65.8) % and the Unbound conc. [39] was 6210. The “fu (95% CI)” value [39] was 62.1 (58.3 - 65.8) %.

Reference: PMC12057341, “In vitro pharmacokinetic/pharmacodynamic modeling of the effect of mucin on polymyxin B activity against Acinetobacter baumannii” (Antimicrobial Agents and Chemotherapy, 2025)
